The source of these data is patent US6194423A, “Fused isoquinolines as dopamine receptor ligands” (priority 1999, dated 2001).

Molecules are shown by their SMILES. Entries after “also recorded” stand apart in the source; their conditions may differ.

One assay has as its target D1 receptors. Kind of assay: Adenylate cyclase activity (cAMP accumulation) in rat striatal homogenates. Format: biochemical. The conditions noted are these: rat striatum; for agonist activity / efficacy, in words: relative to dopamine. The procedure:
Adenylate cyclase activity in rat striatum. The automated HPLC method of Schulz and Mailman was used to measure adenylate cyclase activity by separating cAMP from other labeled nucleotides. […] Triplicate determinations were performed for each drug concentration.
The reaction proceeded for 15 min at 30° C. and was terminated by the addition of 100 μL of 3% sodium dodecyl sulfate (SDS). […] Samples were centrifuged (10,000×g for 8-9 min), and the supernatants injected on an HPLC system (Waters Z-module or RCM 8×10 module equipped with a C18, 10 micron cartridge). […] The radioactivity in each fraction was determined by a flow-through radiation detector (Inus Systems, Tampa, Fla.) using Cerenkov counting. Sample recovery was based on UV measurement of total unlabeled CAMP peak areas quantified using PE Nelson (Cupertino, Calif.) Model 900 data collection modules and TurboChrom software.
Data analysis for adenylate cyclase studies. Data for each sample were expressed initially as pmol/mg/min cAMP. Baseline values of cAMP were subtracted from the total amount of cAMP produced in each drug condition. Data for each drug were expressed relative to the stimulation produced by 100 μM DA.
For orientation: cAMP levels reflect the balance of adenylyl cyclase and phosphodiesterase activity.

The target of assay [1] is T1, rat striatal D1 receptors (Rattus norvegicus, UniProt P18901).
T1 construct: Frozen rat striata were homogenized; from tissue; host or cells: rat striatum (adult male Sprague Dawley), washed membrane homogenate
Put plainly: D1 receptor binding ([3H]SCH23390) in rat striatal homogenates. As to conditions: for D1 binding nH (Hill slope): competition against 3H-SCH23390. Here is the method: Dopamine receptor binding assays.
Data analysis for radioreceptor assays. […] Data were normalized by expressing the average dpm at each competitor concentration as a percentage of total binding.
Competition curves were analyzed by non linear regression to determine estimates for the K0.5 and Hill slope (nH). Data represent the mean and standard error from three independent assays for each test compound.

Assay [2] has as its target T2, primate D1A receptors expressed in C-6 glioma cells (Macaca mulatta, UniProt O77680).
T2 construct: expressed in transfected cells; host or cells: C-6 glioma cells (C-6-mD1A), membranes
Kind of assay: Adenylate cyclase (cAMP accumulation) assay in C-6-mD1A cell membranes. Format: biochemical, rhesus macaque. The conditions noted are these: for agonist activity / efficacy, in words: cloned primate D1A receptors in C-6 glioma cells, relative to dopamine. The procedure:
Cell Cultures. C-6 glioma cells expressing the rhesus macaque D1 A receptor, (C-6-mD1A; Machida et al., 1992) were grown in DMEM-H medium containing 4,500 mg/L glucose, L-glutamine, 5% fetal bovine serum and […] G418 or 2 μg/mL puromycin. Cells were maintained in a humidified incubator at 37° C. with 5% CO2.
Membrane Preparation. Cells were grown in 75 cm^2 flasks until confluent. The cells were rinsed and lysed with 10 mL of ice cold hypoosmotic buffer (HOB) (5 mM Hepes, 2.5 mM MgCl2, 1 mM EDTA; pH 7.4) for 10 minutes at 4° C. Cells were then scraped from the flasks using a sterile cell scraper from Baxter (McGaw Park, Ill.). Flasks received a final rinse with 5 mL of HOB. The final volume of the cell suspension recovered from each flask was ca. 14 mL. Scraped membranes from several flasks were then combined. The combined cell suspension was homogenized (10 strokes), 14 mL at a time, using a 15 mL Wheaton Teflon-glass homogenizer. The cell homogenates were combined and spun at 43,000×g (Sorvall RC-5B/SS-34, Du Pont, Wilmington, Del.) at 4° C. for 20 min. The supernatant was removed, and the pellet was resuspended (10 strokes) in 1 mL of ice cold HOB for each original flask of cells homogenized. This homogenate was then spun again at 43,000×g at 4° C. for 20 min. The supernatant was removed and the final pellet was resuspended (10 strokes) in ice cold storage buffer (50 mM Hepes, 6 mM MgCl2, 1 mM EDTA; pH 7.4) to yield a final concentration of ca. 2.0 mg of protein/mL. Aliquots of the final homogenate were stored in microcentrifuge tubes at -80° C.
Adenylate cyclase assay in C-6mD1A cells. Frozen membranes were thawed and added to assay tubes (10 μg protein/tube) containing a prepared reaction mixture [100 TnM Hepes, (pH 7.4), 100 mM NaCl, 4 mM MgCl2, 2 mM EDTA, 500 μM isobutyl methylxanthine (IBMX), 0.01% ascorbic acid, 10 μM pargyline, 2 mM ATP, 5 μM GTP, 20 mM phosphocreatine, 5 units of creatine phosphokinase (CPK), 1 μM propranolol] and selected drugs. The final reaction volume was 100 μL.
Basal cAMP activity was determined by incubation of tissue in the reaction mixture with no drug added. Tubes were assayed in duplicate and, after a 15 min incubation at 30° C., the reaction was stopped by the addition of 500 μL of 0.1 N HCl. Tubes were vortexed briefly, and then spun in a BHG HermLe Z 230 M microcentrifuge for five min at 15,000×g to precipitate particulates.
Radioimmunoassay (RIA) of CAMP. The concentration of cAMP in each sample was determined with an RIA of acetylated cAMP, modified from that previously described. Iodination of cAMP was performed using a method reported by Patel and Linden. Assay buffer was 50 mM sodium acetate buffer with 0.1% sodium azide (pH 4.75). Standard curves of cAMP were prepared in buffer at concentrations of 2 to 500 fmol/assay tube. To improve assay sensitivity, all samples and standards were acetylated with 10 μl of a 2:1 solution of triethylamine:acetic anhydride. Samples were assayed in duplicate. Each assay tube (total volume 300 μL) contained 25 μL of each sample, 75 μL of buffer, 100 μL of primary antibody (sheep, anti-cAMP, 1:100,000 dilution with 1% BSA in buffer) and 100 μL of [^125 I]-cAMP (50,000 dpm/100 μL of buffer). Tubes were vortexed and stored at 4° C. overnight (approx. 18 h). Antibody-bound radioactivity was separated by the addition of 25 μL of BioMag rabbit, anti-goat IgG (Advanced Magnetics, Cambridge Mass.), followed by vortexing and incubation at 4° C. for 1 h. […]

The subject of the next assay is D1 receptor. The conditions noted are these: cited from earlier work.
The next assay addresses D2 receptors (Rattus norvegicus, UniProt P61169).
A further assay has as its system MPTP-treated monkey. The conditions noted are these: MPTP-treated monkey model; cited from earlier work.

T1 sequence (P18901 whole entry): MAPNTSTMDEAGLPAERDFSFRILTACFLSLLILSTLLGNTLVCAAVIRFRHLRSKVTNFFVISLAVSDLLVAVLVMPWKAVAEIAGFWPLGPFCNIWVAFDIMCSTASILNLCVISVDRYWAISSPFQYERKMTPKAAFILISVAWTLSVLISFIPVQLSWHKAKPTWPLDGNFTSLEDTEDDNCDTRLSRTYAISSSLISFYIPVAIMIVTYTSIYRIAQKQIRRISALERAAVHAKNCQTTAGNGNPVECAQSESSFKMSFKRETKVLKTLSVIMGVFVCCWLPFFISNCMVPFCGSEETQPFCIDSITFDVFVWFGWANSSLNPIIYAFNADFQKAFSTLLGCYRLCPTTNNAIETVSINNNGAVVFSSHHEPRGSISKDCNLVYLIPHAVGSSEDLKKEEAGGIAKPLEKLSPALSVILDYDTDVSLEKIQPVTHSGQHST
T2 sequence (O77680 whole entry): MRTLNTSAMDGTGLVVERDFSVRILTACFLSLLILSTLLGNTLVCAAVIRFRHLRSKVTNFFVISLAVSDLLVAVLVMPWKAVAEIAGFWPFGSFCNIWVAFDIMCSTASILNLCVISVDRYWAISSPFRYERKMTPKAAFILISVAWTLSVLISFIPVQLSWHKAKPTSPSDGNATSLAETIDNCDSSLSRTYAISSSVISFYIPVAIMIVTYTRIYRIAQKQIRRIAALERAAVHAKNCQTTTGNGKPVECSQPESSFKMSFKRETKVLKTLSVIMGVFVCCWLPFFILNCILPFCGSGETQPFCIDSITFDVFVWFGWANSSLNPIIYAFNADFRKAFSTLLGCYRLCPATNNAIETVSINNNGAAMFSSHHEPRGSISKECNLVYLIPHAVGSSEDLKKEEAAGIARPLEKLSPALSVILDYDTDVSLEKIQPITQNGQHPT
D2 receptors, sequence (P61169 whole entry): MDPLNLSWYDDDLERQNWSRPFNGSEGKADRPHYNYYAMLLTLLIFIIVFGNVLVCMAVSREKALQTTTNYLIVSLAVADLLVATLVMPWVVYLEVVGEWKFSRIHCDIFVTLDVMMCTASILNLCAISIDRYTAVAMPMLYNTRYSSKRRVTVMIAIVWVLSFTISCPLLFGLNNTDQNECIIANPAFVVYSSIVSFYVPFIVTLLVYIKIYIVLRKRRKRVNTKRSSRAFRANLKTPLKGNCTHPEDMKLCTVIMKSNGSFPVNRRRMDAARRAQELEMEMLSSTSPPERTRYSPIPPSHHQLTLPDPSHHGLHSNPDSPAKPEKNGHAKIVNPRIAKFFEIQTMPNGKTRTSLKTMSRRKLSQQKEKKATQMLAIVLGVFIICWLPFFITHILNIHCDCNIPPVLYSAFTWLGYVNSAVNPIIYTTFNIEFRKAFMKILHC

By EC50 is commonly meant the concentration needed to bring the measured effect to its halfway point. Take `Oc1ccc2c(c1O)Cc1cccc3c1C2CNC3` (racemic) [dinapsoline, (±)-8,9-dihydroxy-2,3,7,11b-tetrahydro-1H-naphtho[1,2,3-de] isoquinoline]: the concentration for a half-maximal effect (EC50) at D1 receptors (read-out: EC50 in stimulating synthesis of cAMP via D1 receptors) is roughly 30 nM; in assay [2] (C-6-mD1 cells, average of two experiments in duplicate, read-out: EC50 in stimulating synthesis of cAMP via D1 receptors), roughly 30 nM. In addition, the entries for the “agonist activity / efficacy, in words” value (with D1 receptors; in assay [2]) were “full agonist activity; also recorded: full agonist relative to dopamine” and “full efficacy; also recorded: full agonist activity; also recorded: full agonist relative to dopamine”, respectively. In assay [1] (FIG. 3), the “slope of D1 competition curve, in words” value is “shallow competition curve; also recorded: shallower slopes”. Besides, in assay [1] (compared with dihydrexidine, rat striatal homogenates, FIG. 3), the “D1 affinity, in words” value is “high affinity for dopamine D1 receptors; also recorded: almost identical affinity as dihydrexidine”. For the same compound, the “D1 binding nH (Hill slope)” value is given as 0.66 in assay [1] (rat striatal homogenates) and 0.66 ± 0.01 in assay [1] (rat striatal homogenates, listed as (±)-4).
As to `Oc1cc2c(cc1O)C(c1ccccc1)CNCC2` (single isomer, unassigned) [SKF 38393], the “agonist activity / efficacy, in words” value in the assay with D1 receptors was “partial agonist”; in assay [2] it was “partial agonist”; in assay [2] (listed as (+)-2), “only of partial efficacy”. In addition, the “D1 binding nH (Hill slope)” value in assay [1] (rat striatal homogenates) was 0.75 ± 0.08. For the same compound, the “intrinsic efficacy at D1 receptor, in words” value (shortened to “intrinsic efficacy”) in the assay with D1 receptor is listed as “generally lacked full intrinsic efficacy”.
In the case of `Oc1cc2c(cc1O)[C@H]1c3ccccc3CN[C@@H]1CC2` [6aR,12bS], in the assay with D1 receptor, the “intrinsic efficacy” value was “high affinity full agonist at the D1 receptor”.
`CN(C)CCCN1c2ccccc2Sc2ccc(Cl)cc21` [Chlorpromazine]: the “D2 binding nH (Hill slope)” value at D2 receptors (competition against 3H-spiperone, rat striatal homogenates) is 0.93 ± 0.01.
As for `NC[C@@H]1O[C@H](C23CC4CC(CC(C4)C2)C3)Cc2c1ccc(O)c2O` [Example A-77636], in the assay on MPTP-treated monkey, the anti-parkinsonian effects result is given as “exceptional anti-parkinsonian effects”.
Take `CN1CCc2cc(Cl)c(O)cc2[C@@H](c2ccccc2)C1` [SCH23390]: in assay [1] (rat striatal homogenates), the “D1 binding nH (Hill slope)” value was found to be 1.05 ± 0.01.
As for `C=CCN1CCc2c(cc(O)c(O)c2Cl)C(c2ccccc2)C1` (stereo not drawn) [SKF 82958], in the assay with D1 receptor, the “intrinsic efficacy” value is listed as “not to have full intrinsic efficacy in preparations with decreased receptor reserve”.
Take `Oc1cc2c(cc1O)[C@H]1c3ccccc3CN[C@@H]1CC2` [dihydrexidine, (+)-trans-10,11-dihydroxy-5,6,6a,7,8,12b-hexahydrobenzo[a]phenanthridine]: the “agonist activity / efficacy, in words” value with D1 receptors is reported as “full agonist relative to dopamine”; in assay [2] it was “full efficacy; also recorded: full agonist relative to dopamine”. Further, in assay [1] (FIG. 3), the “slope of D1 competition curve, in words” value was “shallower slopes”. Further, the “D1 binding nH (Hill slope)” value in assay [1] (rat striatal homogenates) was found to be 0.65 ± 0.01. For the same compound, the anti-parkinsonian effects entry in the assay on MPTP-treated monkey is “exceptional anti-parkinsonian effects”. At D2 receptors (FIG. 6, compared with chlorpromazine), the “slope of D2 competition curve, in words” value is reported as “shallower than for the prototypical D2 antagonist chlorpromazine”.
